Source: article PMC4878443 (Journal of medicinal chemistry, 2015)

What follows are molecules tested against human LSD1 (Homo sapiens, UniProt O60341) (assay: LSD1 inhibition, mass spectrometry). Conditions: not given.
Format: biochemical

LSD1 inhibition in words	SMILES
Loss of activity	Cc1ccc(-c2ncc(OCc3ccccc3)cc2-c2ccc(C#N)cc2)cc1 [Compound 45]
almost inactive	Cc1ccc(-c2ncc(OCC3CCNCC3)cc2-c2ccc(CN3CCCCC3)cc2)cc1 [Compound 36]
completely lose inhibitory activities	Cc1ccc(-c2ncc(OCC3CCNCC3)cc2-c2ccc(CO)cc2)cc1 [Compound 30]
Loss of activity	Cc1ccc(-c2ncc(O)cc2-c2ccc(C#N)cc2)cc1 [Compound 44]
activity loss	C#Cc1ccc(-c2cc(OCC3CCNCC3)cnc2-c2ccc(C)cc2)cc1 [Compound 28]
inactive	c1ccc(-c2cc(OCC3CCNCC3)cnc2-c2ccccc2)cc1 [Compound 11]
completely lose inhibitory activities	Cc1ccc(-c2ncc(OCC3CCNCC3)cc2-c2ccc(C(=O)O)cc2)cc1 [Compound 29]
inactive	c1ccc(-c2ccc(OCC3CCNCC3)cn2)cc1 [Compound 3]

Same assay, conditions: Ki ratio to compound 17

fold less active against LSD1 than compound 17	SMILES
> 1,700 fold	C#Cc1ccc(-c2cc(OCC3CCNCC3)cnc2-c2ccc(C)cc2)cc1 [Compound 28]

These molecules were tested on normal fibroblast cells WI-38 (assay: Cell growth inhibition). Conditions: not given.
Format: cell-based

SMILES	activity against growth of normal cells in words
CN1CCN(C(=O)CN[C@H]2C[C@@H]2c2ccc(-c3ccc(F)nc3)cc2)CC1 [Compound S2]	inactive
